Our source for the IC50, half-life and Ratio IC50 values is ChEMBL document CHEMBL5584244, “Discovery of novel pyrrolo[2,1-c][1,4]benzodiazepine-3,11-dione (PBD) derivatives as selective HDAC6 inhibitors for the efficient treatment of idiopathic pulmonary fibrosis (IPF) in vitro and in vivo” (Eur J Med Chem, 2024).

Each structure is given as a SMILES string. Some results are limits rather than exact numbers.

Data set [1] concerns the target T1, Protein deacetylase HDAC6 (Homo sapiens, UniProt Q9UBN7).
T1 sequence (Q9UBN7 whole entry): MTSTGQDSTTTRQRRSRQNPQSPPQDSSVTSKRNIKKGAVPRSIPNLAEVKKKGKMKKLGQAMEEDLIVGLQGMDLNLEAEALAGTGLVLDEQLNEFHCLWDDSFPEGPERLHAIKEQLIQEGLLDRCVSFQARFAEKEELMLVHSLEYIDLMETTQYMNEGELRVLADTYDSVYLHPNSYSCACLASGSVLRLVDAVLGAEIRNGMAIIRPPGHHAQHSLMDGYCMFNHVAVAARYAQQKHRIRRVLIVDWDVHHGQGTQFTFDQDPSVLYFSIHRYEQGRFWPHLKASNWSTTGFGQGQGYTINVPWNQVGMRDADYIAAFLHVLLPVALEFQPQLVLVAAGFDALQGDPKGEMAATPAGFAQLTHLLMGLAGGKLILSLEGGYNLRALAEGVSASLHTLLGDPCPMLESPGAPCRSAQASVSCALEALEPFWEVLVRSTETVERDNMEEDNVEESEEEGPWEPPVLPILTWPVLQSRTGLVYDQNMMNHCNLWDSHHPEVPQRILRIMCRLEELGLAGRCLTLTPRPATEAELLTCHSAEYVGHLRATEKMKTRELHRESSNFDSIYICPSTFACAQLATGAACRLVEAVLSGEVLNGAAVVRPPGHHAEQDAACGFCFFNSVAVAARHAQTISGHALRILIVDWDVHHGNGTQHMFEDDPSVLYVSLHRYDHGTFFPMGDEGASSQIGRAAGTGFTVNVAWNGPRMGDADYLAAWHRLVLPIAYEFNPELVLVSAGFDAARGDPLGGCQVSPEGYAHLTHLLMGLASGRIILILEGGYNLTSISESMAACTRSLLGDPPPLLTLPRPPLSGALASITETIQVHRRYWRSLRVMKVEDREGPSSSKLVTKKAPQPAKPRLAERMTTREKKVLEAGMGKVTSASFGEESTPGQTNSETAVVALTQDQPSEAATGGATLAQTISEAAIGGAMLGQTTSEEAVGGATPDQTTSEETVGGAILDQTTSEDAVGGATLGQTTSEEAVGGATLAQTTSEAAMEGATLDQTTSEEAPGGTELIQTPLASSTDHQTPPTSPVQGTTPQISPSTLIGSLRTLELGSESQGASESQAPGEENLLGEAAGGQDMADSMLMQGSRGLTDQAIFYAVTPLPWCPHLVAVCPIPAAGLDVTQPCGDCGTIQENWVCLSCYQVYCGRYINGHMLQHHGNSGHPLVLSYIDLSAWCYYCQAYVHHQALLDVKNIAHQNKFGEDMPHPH
The experiment in a line: Inhibition of recombinant human full length HDAC6 using Boc-Lys (Ac)-AMC as substrate incubated for 120 mins by fluorescence analysis.

Data set [2] can be described thus: Half life in human liver microsomes at 100 uM by LC-MS/MS analysis. It counts as ADME, Microsome. Background: Liver microsomes are a subcellular fraction often used to study metabolism.
The target of a further data set is Histone deacetylase 1 (Homo sapiens, UniProt Q13547). The experiment in a line: Inhibition of C-terminal His6/Flag-tagged recombinant human full length HDAC1 using Boc-Lys (Ac)-AMC as substrate incubated for 120 mins by fluorescence analysis.
Chain of Histone deacetylase 1 (Q13547 whole entry): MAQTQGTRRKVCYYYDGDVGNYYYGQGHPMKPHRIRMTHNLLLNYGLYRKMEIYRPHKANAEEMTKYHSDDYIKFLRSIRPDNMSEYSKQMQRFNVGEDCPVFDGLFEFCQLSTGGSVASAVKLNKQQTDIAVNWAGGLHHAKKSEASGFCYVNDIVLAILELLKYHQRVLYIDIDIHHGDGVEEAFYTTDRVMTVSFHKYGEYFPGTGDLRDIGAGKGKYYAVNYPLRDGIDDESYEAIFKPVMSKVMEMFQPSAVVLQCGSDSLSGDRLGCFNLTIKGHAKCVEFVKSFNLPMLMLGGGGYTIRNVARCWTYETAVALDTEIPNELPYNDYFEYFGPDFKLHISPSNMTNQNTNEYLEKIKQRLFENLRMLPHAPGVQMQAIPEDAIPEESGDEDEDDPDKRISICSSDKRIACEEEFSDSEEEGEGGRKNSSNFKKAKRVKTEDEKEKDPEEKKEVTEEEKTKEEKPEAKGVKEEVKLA
For a further data set, the target named is T2, Histone deacetylase 11 (Homo sapiens, UniProt Q96DB2).
T2 sequence (Q96DB2 whole entry): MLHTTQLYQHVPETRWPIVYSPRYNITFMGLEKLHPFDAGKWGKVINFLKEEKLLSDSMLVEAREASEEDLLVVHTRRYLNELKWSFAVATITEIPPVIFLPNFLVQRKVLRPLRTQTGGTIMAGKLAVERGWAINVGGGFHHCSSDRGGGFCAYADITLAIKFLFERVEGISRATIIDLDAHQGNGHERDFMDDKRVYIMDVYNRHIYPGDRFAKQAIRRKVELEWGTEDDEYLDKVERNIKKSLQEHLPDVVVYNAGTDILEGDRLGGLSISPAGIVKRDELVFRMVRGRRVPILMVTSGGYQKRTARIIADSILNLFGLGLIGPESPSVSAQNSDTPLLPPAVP
The experiment in a line: Inhibition of recombinant human full length HDAC11 using Boc-Lys (Tfa)-AMC as substrate incubated for 120 mins by fluorescence analysis.

A further data set is filed under the species Homo sapiens. The experiment in a line: Selectivity index, ratio IC50 for C-terminal His6/Flag-tagged recombinant human full length HDAC1 to IC50 for inhibition of recombinant human full length HDAC6.
Another data set addresses Histone deacetylase 4 (Homo sapiens, UniProt P56524). The experiment in a line: Inhibition of recombinant human HDAC4 using Boc-Lys (Ac)-AMC as substrate incubated for 120 mins by fluorescence analysis.
In the next data set the target is Histone deacetylase 2 (Homo sapiens, UniProt Q92769). The experiment in a line: Inhibition of recombinant human full length HDAC2 using Boc-Lys (Ac)-AMC as substrate incubated for 120 mins by fluorescence analysis.
Chain of Histone deacetylase 2 (Q92769 whole entry): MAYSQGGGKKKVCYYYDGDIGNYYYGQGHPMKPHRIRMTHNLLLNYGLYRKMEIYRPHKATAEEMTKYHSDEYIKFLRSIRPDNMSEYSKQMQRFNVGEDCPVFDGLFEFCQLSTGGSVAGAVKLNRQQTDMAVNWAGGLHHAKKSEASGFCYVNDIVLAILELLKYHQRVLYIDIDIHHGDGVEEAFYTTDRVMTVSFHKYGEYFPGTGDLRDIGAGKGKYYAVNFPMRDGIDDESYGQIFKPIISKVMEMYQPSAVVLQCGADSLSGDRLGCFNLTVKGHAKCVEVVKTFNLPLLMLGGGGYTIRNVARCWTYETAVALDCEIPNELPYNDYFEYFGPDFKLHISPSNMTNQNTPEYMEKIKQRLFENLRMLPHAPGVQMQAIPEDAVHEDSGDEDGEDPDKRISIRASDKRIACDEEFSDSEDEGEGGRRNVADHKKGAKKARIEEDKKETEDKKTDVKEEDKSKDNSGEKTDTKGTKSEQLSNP
Data set [3] deals with T3, Polyamine deacetylase HDAC10 (Homo sapiens, UniProt Q969S8).
T3 sequence (Q969S8 whole entry): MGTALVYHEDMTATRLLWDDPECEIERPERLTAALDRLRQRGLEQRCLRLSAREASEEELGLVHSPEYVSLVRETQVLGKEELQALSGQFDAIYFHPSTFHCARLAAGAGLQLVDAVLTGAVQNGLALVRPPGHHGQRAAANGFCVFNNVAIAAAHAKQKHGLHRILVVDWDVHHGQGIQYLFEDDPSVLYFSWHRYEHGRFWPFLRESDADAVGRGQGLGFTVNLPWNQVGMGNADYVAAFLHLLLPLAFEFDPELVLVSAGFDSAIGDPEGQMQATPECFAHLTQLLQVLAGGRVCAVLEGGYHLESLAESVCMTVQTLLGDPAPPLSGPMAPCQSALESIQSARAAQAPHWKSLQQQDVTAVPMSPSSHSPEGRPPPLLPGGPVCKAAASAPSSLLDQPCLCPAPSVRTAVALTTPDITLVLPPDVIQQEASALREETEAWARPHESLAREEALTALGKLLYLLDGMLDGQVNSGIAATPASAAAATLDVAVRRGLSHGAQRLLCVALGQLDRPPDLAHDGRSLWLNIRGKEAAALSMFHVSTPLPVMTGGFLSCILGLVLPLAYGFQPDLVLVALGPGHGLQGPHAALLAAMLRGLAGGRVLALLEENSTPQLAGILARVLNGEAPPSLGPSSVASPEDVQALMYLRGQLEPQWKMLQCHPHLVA
The experiment in a line: Inhibition of N-terminal FLAG-tagged recombinant human HDAC10 (2 to 631 residues) expressed in baculovirus sf9 insect cells expression system using Boc-Lys (Ac)-AMC as substrate incubated for 120 mins by fluorescence analysis.

A further data set addresses T4, Histone deacetylase 7 (Homo sapiens, UniProt Q8WUI4).
T4 sequence (Q8WUI4 whole entry): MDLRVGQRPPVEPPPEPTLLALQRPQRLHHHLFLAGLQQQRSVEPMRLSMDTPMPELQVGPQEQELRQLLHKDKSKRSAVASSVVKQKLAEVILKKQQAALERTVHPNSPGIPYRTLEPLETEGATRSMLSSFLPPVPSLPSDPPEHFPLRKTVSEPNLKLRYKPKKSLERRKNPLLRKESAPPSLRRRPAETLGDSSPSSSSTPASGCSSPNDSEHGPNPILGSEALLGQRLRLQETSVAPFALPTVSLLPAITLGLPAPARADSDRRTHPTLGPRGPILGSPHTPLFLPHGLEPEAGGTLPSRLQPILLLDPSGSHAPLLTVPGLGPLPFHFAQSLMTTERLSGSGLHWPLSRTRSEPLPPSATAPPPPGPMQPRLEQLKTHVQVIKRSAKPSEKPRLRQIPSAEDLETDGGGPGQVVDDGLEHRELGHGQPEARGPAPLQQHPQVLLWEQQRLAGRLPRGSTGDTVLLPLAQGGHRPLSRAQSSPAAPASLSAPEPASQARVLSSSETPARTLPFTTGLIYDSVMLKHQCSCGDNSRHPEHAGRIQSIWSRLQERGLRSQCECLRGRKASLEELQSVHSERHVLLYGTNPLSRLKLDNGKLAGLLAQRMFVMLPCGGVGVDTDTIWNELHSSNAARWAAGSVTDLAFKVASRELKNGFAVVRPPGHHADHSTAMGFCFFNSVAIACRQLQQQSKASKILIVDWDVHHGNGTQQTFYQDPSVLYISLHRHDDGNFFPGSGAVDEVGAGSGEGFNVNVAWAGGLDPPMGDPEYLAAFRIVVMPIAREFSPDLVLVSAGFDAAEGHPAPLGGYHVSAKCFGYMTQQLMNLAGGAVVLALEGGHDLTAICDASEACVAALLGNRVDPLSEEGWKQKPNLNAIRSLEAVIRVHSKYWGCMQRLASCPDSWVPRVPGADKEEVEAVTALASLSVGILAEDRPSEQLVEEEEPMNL
The experiment in a line: Inhibition of N-terminal GST-tagged recombinant human HDAC7 (518 to end residues) expressed in baculovirus expression system using Boc-Lys (Tfa)-AMC as substrate incubated for 120 mins by fluorescence analysis.

Chain of Histone deacetylase 4 (P56524 whole entry): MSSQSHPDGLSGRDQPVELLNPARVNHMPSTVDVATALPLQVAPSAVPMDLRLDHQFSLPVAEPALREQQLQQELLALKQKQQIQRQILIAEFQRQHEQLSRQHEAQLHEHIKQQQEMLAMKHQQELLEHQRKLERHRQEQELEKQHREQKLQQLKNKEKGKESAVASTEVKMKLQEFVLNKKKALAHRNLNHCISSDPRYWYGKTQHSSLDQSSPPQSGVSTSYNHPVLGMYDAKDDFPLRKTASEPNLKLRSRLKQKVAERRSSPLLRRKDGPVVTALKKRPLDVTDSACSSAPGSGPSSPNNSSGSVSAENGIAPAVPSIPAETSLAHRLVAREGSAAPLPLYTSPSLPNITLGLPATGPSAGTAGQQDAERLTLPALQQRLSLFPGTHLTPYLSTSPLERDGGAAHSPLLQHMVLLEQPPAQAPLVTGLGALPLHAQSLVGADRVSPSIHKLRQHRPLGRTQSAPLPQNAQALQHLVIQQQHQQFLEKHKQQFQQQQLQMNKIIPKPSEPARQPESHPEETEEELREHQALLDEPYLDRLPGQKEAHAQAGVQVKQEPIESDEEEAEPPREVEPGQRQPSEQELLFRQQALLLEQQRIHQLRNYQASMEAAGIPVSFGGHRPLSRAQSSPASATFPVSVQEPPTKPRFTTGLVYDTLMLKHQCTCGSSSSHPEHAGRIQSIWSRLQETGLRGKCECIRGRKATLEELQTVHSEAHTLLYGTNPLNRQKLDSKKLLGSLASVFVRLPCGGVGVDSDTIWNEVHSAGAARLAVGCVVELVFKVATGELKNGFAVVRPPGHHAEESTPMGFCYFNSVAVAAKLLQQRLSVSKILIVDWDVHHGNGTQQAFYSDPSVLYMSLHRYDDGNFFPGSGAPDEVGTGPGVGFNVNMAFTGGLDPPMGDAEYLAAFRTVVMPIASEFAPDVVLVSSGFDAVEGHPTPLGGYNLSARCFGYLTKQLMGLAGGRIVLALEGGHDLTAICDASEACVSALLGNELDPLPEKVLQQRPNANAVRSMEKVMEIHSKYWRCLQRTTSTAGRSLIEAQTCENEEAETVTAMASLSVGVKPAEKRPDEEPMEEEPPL

Usually IC50 stands for the concentration at which inhibition is half-maximal. With `COc1cc2c(cc1OCc1ccccc1)CN1C(=O)CC[C@H]1C(=O)N2Cc1ccc(CC(=O)NO)cc1`, the IC50 in [1] is 22.3 nM.
For the compound `COc1cc2c(cc1OCc1ccccc1)CN1C(=O)CC[C@H]1C(=O)N2Cc1ccc(C(=O)NO)cc1`, the IC50 in data set [1] turned out to be 21.2 nM.
Take `O=C(Cc1ccc(CN2C(=O)[C@@H]3CCCN3Cc3ccccc32)cc1)NO`: the IC50 in data set [1] is 288 nM.
One may read the half-life as the time needed for the level to fall by half in the phase considered. High values mean slow decline, low ones rapid decline. Compound `O=C(O)Cc1ccccc1Nc1c(Cl)cccc1Cl` [DICLOFENAC] registered a half-life at 100 µM in data set [2] of 5.3 min.
`COc1cc2c(cc1O)CN1C(=O)CC[C@H]1C(=O)N2Cc1ccccc1C(=O)NO`: the IC50 in data set [1] came to 279 nM.
On to `O=C(CCCCCCCN1C(=O)[C@@H]2CCCN2Cc2ccccc21)NO`, for which the 50% inhibitory concentration (IC50) in data set [1] was found to be 291 nM.
Consider `COc1cc2c(cc1OCc1ccccc1)CN1C(=O)CC[C@H]1C(=O)N2CCCCCC(=O)NO`, for which the IC50 in [1] came to 17.4 nM.
As for `COc1cc2c(cc1O)CN1C(=O)CC[C@H]1C(=O)N2Cc1cccc(C(=O)NO)c1`, the IC50 in data set [1] amounted to 296 nM.
Regarding `COc1cc2c(cc1O)CN1C(=O)CC[C@H]1C(=O)N2CCCCCCCC(=O)NO`, the IC50 in data set [1] stood at 176 nM.
In the case of `COc1cc2c(cc1OCc1ccccc1)CN1C(=O)CC[C@H]1C(=O)N2Cc1cccc(C(=O)NO)c1`, in data set [1], the IC50 is 181 nM.
On the same count and under the same terms, under `COc1cc2c(cc1O)CN1C(=O)CC[C@H]1C(=O)N2CCCCCCC(=O)NO` stands 13.5 nM; under `O=C(CCCCCCN1C(=O)[C@@H]2CCCN2Cc2ccccc21)NO`, 294 nM.
On to `O=C(NO)c1cccc(CN2C(=O)[C@@H]3CCCN3Cc3ccccc32)c1`, for which the IC50 in [1] was more than 300 nM.
As for `COc1cc2c(cc1O)CN1C(=O)CC[C@H]1C(=O)N2CCCCCC(=O)NO`, the IC50 in data set [1] was found to be 15.6 nM.
For the compound `COc1cc2c(cc1OCc1ccccc1)CN1C(=O)CC[C@H]1C(=O)N2CCCCCCCC(=O)NO`, in [1], the concentration for half-maximal inhibition (IC50) was 275 nM.
Same read-out and setting: under `COc1cc2c(cc1O)CN1C(=O)CC[C@H]1C(=O)N2Cc1ccc(C(=O)NO)cc1` stands 126 nM.
For the compound `COc1cc2c(cc1OCc1ccccc1)CN1C(=O)CC[C@H]1C(=O)N2CCCCCCC(=O)NO`, the IC50 in data set [1] is 12.1 nM.
For `O=C(NO)c1ccccc1CN1C(=O)[C@@H]2CCCN2Cc2ccccc21`, the IC50 in [1] is more than 300 nM.
On to `O=C(CCCCCN1C(=O)[C@@H]2CCCN2Cc2ccccc21)NO`, for which the IC50 was 437 nM at Histone deacetylase 1; more than 50000 nM on Histone deacetylase 11; 8.45 nM in data set [1]; 499 nM on Histone deacetylase 4; 2680 nM on Histone deacetylase 2; 961 nM in [3]. Besides, the IC50 at Histone deacetylase 7 stood at 731 nM. For the same compound, the Ratio IC50 in the data set listed under Homo sapiens worked out at 51.7.
In the case of `COc1cc2c(cc1OCc1ccccc1)CN1C(=O)CC[C@H]1C(=O)N2Cc1ccccc1C(=O)NO`, the IC50 in data set [1] came out at 204 nM.
